Among the data in PubChem BioAssay (NCI) are TGI and GI50 values, retold here.

Where “and” joins values, the source holds several entries; their conditions need not be identical. Equal values may be shown once.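 Test compounds were applied to cells in 96-well plates for 48 hours at 5 doses. GI50 = concentration required for 50% inhibition of growth. TGI: total growth inhibition.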 Where only a bound is given, the exact number is not on record here.

Test in all cases: inhibition of tumour cell growth, NCI panel, 48 h
The subject of assay [1] is SR leukemia.
For assay [2], the system named is OVCAR-5 ovarian.
Assay [3] relates to A549 NSCLC.
Assay [4] deals with HCT-116 colon.
In assay [5] the test system is HCT-15 colon.

As for `O=C1C=CC(=O)c2c1ccc1c3ccccc3n(-c3cccc([N+](=O)[O-])c3)c21`, the TGI in assay [1] was 0.961 µM; in assay [2], over 10 µM; in assay [3], over 10 µM; in assay [4] it was 3.91 µM; in assay [5], 7.09 µM.

For the molecule `COc1cc(OC)c(/C=C/c2c3ccccc3cc[n+]2C)c(OC)c1`, the GI50 is 2 µM in assay [1]; 3.04 µM in assay [2]; 2.13 µM in assay [3]; 1.4 µM in assay [4]; 24.7 µM in assay [5]. Moreover, the TGI is 41.2 µM in assay [1]; over 49 µM in assay [2]; over 100 µM in assay [3]; 13.5 µM in assay [4]; over 100 µM in assay [5].

For `COc1ncc(-c2ccc3ncnc(Nc4cccc(Cl)c4)c3c2)cc1NS(=O)(=O)C1CC1`, in assay [1], the GI50 is over 100 µM and the TGI was over 100 µM.

Consider `Cn1cc(C2=C(c3cccc(Br)c3)C(=O)NC2=O)c2ccccc21`, for which the GI50 in assay [1] is 7.33 µM; in assay [2] it was over 25 µM; in assay [3], 11.1 µM; in assay [4], 7.62 µM; in assay [5], 9.24 µM. Further, the TGI in assay [1], in assay [2], in assay [3], in assay [4] and in assay [5] was over 25 µM throughout.

As for `C#COc1cccc(Nc2c(C#N)cnc3ncc(NC(=O)CCl)cc23)c1`, the GI50 in assay [1] is 17.6 µM; in assay [2], over 62.5 µM; in assay [3], 46.9 µM; in assay [4] it was 14.8 µM; in assay [5], over 62.5 µM. Also, the TGI in assay [1], in assay [2], in assay [3], in assay [4] and in assay [5] was over 62.5 µM in each case.

On to `CC1(C)CC(=O)C(C=NC(=O)c2ccncc2)=C(O)C1`, for which the TGI in assay [2], in assay [3], in assay [4] and in assay [5] was over 100 µM each time.

`Cc1nc(-[n+]2nc(-c3ccncc3)nn2-c2ccccc2)sc1C`: the TGI in assay [1], in assay [2], in assay [3], in assay [4] and in assay [5] was over 100 µM throughout.

With `CCN1C(=O)N(CC)C2C1NN=c1s/c(=C3\C(=O)N(CC(C)(C)C)c4ccccc43)c(=O)n12` (stereo not given), the GI50 was 0.755 µM in assay [1]; 6.18 µM in assay [2]; 4.35 µM in assay [3]; 3.43 µM in assay [4]; 3.31 µM in assay [5]. The TGI worked out at 41.6 µM in assay [1]; 21.4 µM in assay [2]; 36.4 µM in assay [3]; 14.5 µM in assay [4]; 18.4 µM in assay [5].

Regarding `CCOC(=O)/C=C(/C)Sc1cc(O)c2ccccc2c1O`, the GI50 in assay [1] is 1.3 µM; in assay [2] it was 17.5 µM; in assay [3], 2.5 µM; in assay [4], 2.05 µM; in assay [5] it was 2.54 µM. Also, the TGI is 4.16 µM in assay [1]; 34 µM in assay [2]; 5.99 µM in assay [3]; 4.95 µM in assay [4]; 8.83 µM in assay [5].

As to `CCN(Cc1ccccc1C)c1ccc(CO)c(Cl)c1`, the GI50 in assay [1] was 9.29 µM; in assay [2], 0.391 µM; in assay [3], 6.63 µM; in assay [4], 0.445 µM; in assay [5] it was 8.57 µM. In addition, the TGI was found to be 32.6 µM in assay [1]; 1.74 µM in assay [2]; 27.9 µM in assay [3]; 11.6 µM in assay [4]; 29.3 µM in assay [5].

On to `CC(=O)Oc1ccccc1C(=O)Nc1ncc([N+](=O)[O-])s1`, for which the GI50 in assay [1] was 2.32 µM; in assay [2], 4.07 µM; in assay [3], 2.94 µM; in assay [4] it was 2.26 µM; in assay [5] it was 2.94 µM. In addition, the TGI in assay [1] is 7.99 µM; in assay [2] it was over 100 µM; in assay [3], over 100 µM; in assay [4] it was 9.55 µM and > 61.2 µM; in assay [5] it was 31.3 µM and > 95 µM.

As to `Cc1nn(C(=O)c2ccc(Cl)cc2)c2c1C(/C=C/c1ccccc1)SC(N)=N2` (stereo not given), the TGI in assay [1], in assay [2], in assay [3], in assay [4] and in assay [5] was over 10 µM throughout.

For the molecule `CC(C)(S)C(N)C(=O)O` (stereo not given), the GI50 was 1840 µM in assay [1]; over 5000 µM in assay [2]; 1780 µM in assay [3]; 1860 µM in assay [4]; 1950 µM in assay [5]. The TGI in assay [1], in assay [2], in assay [3], in assay [4] and in assay [5] was over 5000 µM in each case.

Regarding `NC(=O)c1cc(S(=O)(=O)Nc2nnc(-c3ccccc3)c(-c3ccccc3)n2)c(SCc2ccccc2)cc1Cl`, the GI50 in assay [1] is 42.2 µM; in assay [2] it was over 100 µM; in assay [3], over 100 µM; in assay [4] it was over 100 µM; in assay [5], over 88.3 µM. Besides, the TGI in assay [1] is over 70.9 µM; in assay [2], over 100 µM; in assay [3] it was over 100 µM; in assay [4], over 100 µM; in assay [5], over 100 µM.

Take `O=C1NC(=O)/C(=C\c2ccccc2)C2=C1CCCC2`: the GI50 in assay [1] was 2.35 µM; in assay [2] it was 3.53 µM; in assay [3], 19.7 µM; in assay [4], 3.38 µM; in assay [5] it was 10.4 µM. Also, the TGI in assay [1] was found to be 5.77 µM; in assay [2], 12 µM; in assay [3] it was 51.6 µM; in assay [4], 11.1 µM; in assay [5] it was 22.5 µM.

`Cc1nn(C(=O)Cc2ccccc2)c2c1C(c1ccc(Cl)cc1)SC(N)=N2` (stereo not given): the TGI in assay [1], in assay [3], in assay [4] and in assay [5] was over 100 µM in each case.
